What all share (assay type): biochemical
One experiment concerns the target thrombin (Homo sapiens, UniProt P00734). The experiment in a line: Thrombin inhibition in vitro (substrate H-D-Phe-L-pipecolyl-L-Arg-p-nitroanilide dihydrochloride). The following applies: read-out: 50% Inhibitory concentration (IC50) Thrombin. Here is the method: (§1) The effects of typical compounds of the present invention in inhibiting trypsin, plasmin and thrombin in vitro were examined. The trypsin-inhibiting effect was represented in terms of a molar concentration of the compound which inhibits the activity of 0.5 μg/ml of trypsin to hydrolyze benzoyl-D,L-arginine-p-nitroanilide hydrochloride by 50% at 25° C. In the determination of the plasmin- and thrombin-inhibiting effects, 50% inhibitory concentrations were determined by using H-D-Val-Leu-L-Lys-p-nitroanilide dihydrochloride and H-D-Phe-L-pipecolyl-L-Arg-p-nitroanilide dihydrochloride, respectively, as the substrate.

For a further experiment, the system named is trypsin. Nature of the experiment: Trypsin inhibition in vitro (hydrolysis of benzoyl-D,L-arginine-p-nitroanilide hydrochloride). The settings on record: 0.5 μg/ml of trypsin, 25° C, read-out: 50% Inhibitory concentration (IC50) Trypsin. The method, then: as §1
The target in the next experiment is plasmin (Homo sapiens, UniProt P00747). Nature of the experiment: Plasmin inhibition in vitro (substrate H-D-Val-Leu-L-Lys-p-nitroanilide dihydrochloride). The settings on record: read-out: 50% Inhibitory concentration (IC50) Plasmin. The method, then:
as §1

Chain of plasmin (P00747 581-810 limits assumed, species assumed): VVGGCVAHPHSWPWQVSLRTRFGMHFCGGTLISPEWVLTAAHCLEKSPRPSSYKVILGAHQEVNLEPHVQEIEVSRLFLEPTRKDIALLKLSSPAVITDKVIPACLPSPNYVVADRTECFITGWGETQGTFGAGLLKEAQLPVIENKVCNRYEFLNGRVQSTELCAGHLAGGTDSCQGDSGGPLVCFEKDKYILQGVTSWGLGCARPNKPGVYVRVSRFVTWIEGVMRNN
Chain of plasmin (P00747 97-580 partner limits assumed, species assumed): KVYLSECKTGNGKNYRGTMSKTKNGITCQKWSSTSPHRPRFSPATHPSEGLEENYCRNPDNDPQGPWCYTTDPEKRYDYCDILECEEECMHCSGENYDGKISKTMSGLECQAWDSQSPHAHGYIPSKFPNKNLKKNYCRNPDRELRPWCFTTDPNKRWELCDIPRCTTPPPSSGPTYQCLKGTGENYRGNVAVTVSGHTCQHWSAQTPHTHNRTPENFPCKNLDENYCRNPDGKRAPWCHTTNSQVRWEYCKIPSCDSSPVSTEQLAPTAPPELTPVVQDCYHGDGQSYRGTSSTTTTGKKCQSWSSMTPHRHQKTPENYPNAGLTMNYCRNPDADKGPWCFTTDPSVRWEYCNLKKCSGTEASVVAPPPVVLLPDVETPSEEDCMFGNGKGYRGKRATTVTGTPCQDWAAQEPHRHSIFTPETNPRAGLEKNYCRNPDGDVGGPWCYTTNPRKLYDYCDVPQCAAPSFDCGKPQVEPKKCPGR

Turning to `N=C(N)Nc1ccc(C(=O)Oc2ccc(SCCN3C(=O)[C@H]4CCCC[C@H]4C3=O)cc2)cc1` [G, 4-[2-(cis-1,2-cyclohexanedicarboxyimido)-ethylthio]phenyl 4-guanidinobenzoate methanesulfonate], the results for the IC50 on thrombin, with trypsin and on plasmin were 0.16 µM, 0.062 µM and 1 µM, respectively.

For `CC1(C)OC(=O)N(CCSc2ccc(OC(=O)c3ccc(NC(=N)N)cc3)cc2)C1=O` [I, 4-[2-(5,5-dimethyl-2,4-dioxooxazolidin-3-yl)ethylthio]phenyl 4-guanidinobenzoate methanesulfonate], the values for the IC50 on thrombin, with trypsin and at plasmin were 0.32 µM, 0.055 µM and 0.83 µM, respectively.

For `N=C(N)Nc1ccc(C(=O)Oc2ccc(SCCO)cc2)cc1` [A, 4-(2-hydroxyethylthio)phenyl 4-guanidinobenzoate methanesulfonate], the IC50 at thrombin worked out at 0.25 µM; in the experiment on trypsin, 0.043 µM; on plasmin, 1.3 µM.

Consider `N=C(N)Nc1ccc(C(=O)Oc2ccc(SCCCCCN3C(=O)CCC3=O)cc2)cc1` [F, 4-(5-succinimidopentylthio)phenyl 4-guanidinobenzoate methanesulfonate], for which the IC50 on thrombin is 0.27 µM; with trypsin, 0.034 µM; on plasmin it was 0.64 µM.

On to `N=C(N)Nc1ccc(C(=O)Oc2ccc(SCCN3C(=O)CCC3=O)cc2)cc1` [B, 4-(2-succinimidoethylthio)phenyl 4-guanidinobenzoate methanesulfonate], for which the IC50 on thrombin was found to be 0.53 µM; in the experiment with trypsin, 0.047 µM; on plasmin it was 0.95 µM.

Regarding `N=C(N)Nc1ccc(C(=O)Oc2ccc(SCCN3C(=O)c4ccccc4C3=O)cc2)cc1` [H, 4-(2-phthalimidoethylthio)phenyl 4-guanidinobenzoate methanesulfonate], the values for the IC50 on thrombin, in the experiment on trypsin and on plasmin were 0.11 µM, 0.03 µM and 0.92 µM, respectively.

`N=C(N)Nc1ccc(C(=O)Oc2ccc(SCCCCN3C(=O)CCC3=O)cc2)cc1` [E, 4-(4-succinimidobutylthio)phenyl 4-guanidinobenzoate methanesulfonate]: the IC50 came to 0.57 µM at thrombin, 0.022 µM with trypsin and 2.3 µM on plasmin.

For the compound `CCOCCSc1ccc(OC(=O)c2ccc(NC(=N)N)cc2)cc1` [C, 4-(2-ethoxyethylthio)phenyl 4-guanidinobenzoate methanesulfonate], the results for the IC50 at thrombin, in the experiment with trypsin and on plasmin were 0.35 µM, 0.045 µM and 2.2 µM, respectively.

As for `N=C(N)Nc1ccc(C(=O)Oc2ccc(SCCCN3C(=O)CCC3=O)cc2)cc1` [D, 4-(3-succinimidopropylthio)phenyl 4-guanidinobenzoate methanesulfonate], the IC50 at thrombin amounted to 0.42 µM; in the experiment on trypsin, 0.059 µM; on plasmin, 1.3 µM.

Values taken from patent publication US5075335A, “Guanidinobenzoic ester derivative” (Eisai Co., Ltd., priority 1985, dated 1991).
